Values quoted from earlier work as cited in patent US5972966A, “Inhibitors of farnesyl-protein transferase” (Merck & Co., Inc., priority 1997, dated 1999).

Columns and labels:
[1] = test system: farnesyl-protein transferase; conditions: by inhibiting HMG-CoA reductase
[2] = test system: Ras processing in cells; conditions: by inhibiting the rate-limiting step in the isoprenoid biosynthetic pathway

## CC[C@H](C)C(=O)O[C@H]1C[C@@H](C)C=C2C=C[C@H](C)[C@H](CC[C@@H]3C[C@@H](O)CC(=O)O3)[C@H]21 [lovastatin]
[1]
  Indirect inhibition of farnesyl-protein transferase in vivo: Indirect inhibition
[2]
  blocking of Ras processing in cells: blocks Ras processing in cells

## CC[C@H](C)C(=O)O[C@H]1CCC=C2C=C[C@H](C)[C@H](CC[C@@H]3C[C@@H](O)CC(=O)O3)[C@H]21 [compactin]
[1]
  Indirect inhibition of farnesyl-protein transferase in vivo: Indirect inhibition
